Measurements taken from patent US7393812B2, “Methylidene mevalonates and their use as herbicides” (Dow AgroSciences LLC, priority 2004, dated 2008).

What was measured:
Experiment in all cases: General herbicidal evaluation, preemergence
Assay type in all cases: in vivo
Settings in all cases: 16 days after treatment
[1] = tested on: sunflower (Helianthus annus, HELAN)
Source text: (§1) Applications of methylidene mevalonate were made either to the foliage (postemergence) or soil (preemergence). Seeds of sunflower (Helianthus annus, HELAN), morningglory (Ipomoea hederacea, IPOHE) velvetleaf (Abutilon theophrasti, ABUTH), pigweed (Amaranthus spp., AMARE), barnyardgrass (Echinochloa crusgalli, ECHCG), giant foxtail (Setaria faberi, SETFA), wild oats (Avena fatua, AVEFA), and blackgrass (Alopecurus myosuroides, ALOMY) were planted in mineral soil (sandy clay loam, 51% sand, 26% silt, 23% clay, 2.8% O.M., pH 7.8) and Metro-mix (Bulk Sak, Inc., Malvern, Ark., USA) for preemergence and postemergence treatments, respectively. Pots receiving preemergence treatments were watered immediately following application. Prior to postemergence treatment, plants were grown in the greenhouse (16 h photoperiod, 27 C) and thinned to a density of 2 to 15 plants pot^−1, depending on species. At the time of postemergence applications, plants were 8-12 days old, 3 to 10 cm in height, and in the 1- to 3-true-leaf stage. Natural light in the greenhouse was supplemented with metal halide lights that provided an average photosynthetic photon flux of 500 μmol m^−2s^−1.
(§2) A sample of sodium methylidene mevalonate was dissolved in 4 mL of distilled water followed by 10 mL of formulation stock “B” (200 mL isopropanol, 20 mL crop oil concentrate, 0.4 g Triton X-155 [Sigma Chemical Co., St. Louis, Mo. 62718], and 78 mL water). This was followed by three 1:1 (v/v) serial dilutions using formulation stock “C” (100 mL isopropanol, 10 mL crop oil concentrate, 0.2 g Triton X-155, 390 mL water, 485 mL acetone and 15 mL DMSO).
(§3) Treatments were made at four different doses (4000, 2000, 1000, and 500 g ha^−1). For preemergence treatments, 1.75 mL of spray solution were applied to the soil surface in each pot using a glass Cornwall syringe fitted with a Teejet SS8001E flat-fan nozzle (Spraying Systems Co., Wheaton, Ill. 60189-7900). For postemergence applications, the foliage of the test plants was sprayed using a DeVilbiss atomizer (DeVilbiss Health Car, Inc., Somerset, Pa. 15501) driven by compressed air at a pressure of 22 kPa. Untreated controls were included.
(§4) Pots were placed in the greenhouse following compound application. Pots from postemergence and preemergence were sub-irrigated and top-watered, respectively, as needed for the duration of the test. Visual injury ratings were taken 9 and 16 days after treatment for postemergence and preemergence applications, respectively, on a 0 to 100 scale where 0 represents no injury and 100 represents complete necrosis.

[2] = tested on: giant foxtail (Setaria faberi, SETFA)
Source text: as §1, §2, §3, §4

[3] = tested on: blackgrass (Alopecurus myosuroides, ALOMY)
Source text: as §1, §2, §3, §4

[4] = tested on: morningglory (Ipomoea hederacea, IPOHE)
Source text: as §1, §2, §3, §4

[5] = tested on: velvetleaf (Abutilon theophrasti, ABUTH)
Source text: as §1, §2, §3, §4

[6] = tested on: barnyardgrass (Echinochloa crusgalli, ECHCG)
Source text: as §1, §2, §3, §4

[7] = tested on: wild oats (Avena fatua, AVEFA)
Source text: as §1, §2, §3, §4

[8] = tested on: pigweed (Amaranthus spp., AMARE)
Source text: as §1, §2, §3, §4

`C=C(CO)C(C)(O)CC(=O)O` (centres unmarked) [methylidene mevalonate, 3-hydroxy-4-(hydroxymethyl)-3-methylpent-4-enoic acid] was tested, and the “Visual Injury (%)” value ([1]; 0.5 kg ha^−1, HELAN) was 20%, the “Visual Injury (%)” value ([1]; 1.0 kg ha^−1, HELAN) was 30% and the “Visual Injury (%)” value ([1]; 2.0 kg ha^−1, HELAN) was 30%. For the same compound, the “Visual Injury (%)” value ([1]; 4.0 kg ha^−1, HELAN) was 60%, the “Visual Injury (%)” value ([2]; 0.5 kg ha^−1, SETFA) was 0% and the “Visual Injury (%)” value ([2]; 1.0 kg ha^−1, SETFA) was 0%. The “Visual Injury (%)” value ([2]; 2.0 kg ha^−1, SETFA) was 20%, the “Visual Injury (%)” value ([2]; 4.0 kg ha^−1, SETFA) was 30% and the “Visual Injury (%)” value ([3]; 0.5 kg ha^−1, ALOMY) was 0%. The “Visual Injury (%)” value ([3]; 1.0 kg ha^−1, ALOMY) was 0%, the “Visual Injury (%)” value ([3]; 2.0 kg ha^−1, ALOMY) was 20% and the “Visual Injury (%)” value ([3]; 4.0 kg ha^−1, ALOMY) was 30%. The “Visual Injury (%)” value ([4]; 0.5 kg ha^−1, IPOHE) was 0%, the “Visual Injury (%)” value ([4]; 1.0 kg ha^−1, IPOHE) was 0% and the “Visual Injury (%)” value ([4]; 2.0 kg ha^−1, IPOHE) was 0%. The “Visual Injury (%)” value ([4]; 4.0 kg ha^−1, IPOHE) was 20%, the “Visual Injury (%)” value ([5]; 0.5 kg ha^−1, ABUTH) was 0% and the “Visual Injury (%)” value ([5]; 1.0 kg ha^−1, ABUTH) was 0%. The “Visual Injury (%)” value ([5]; 2.0 kg ha^−1, ABUTH) was 20%, the “Visual Injury (%)” value ([5]; 4.0 kg ha^−1, ABUTH) was 30% and the “Visual Injury (%)” value ([6]; 0.5 kg ha^−1, ECHCG) was 0%. For the same compound, the “Visual Injury (%)” value ([6]; 1.0 kg ha^−1, ECHCG) was 0%, the “Visual Injury (%)” value ([6]; 2.0 kg ha^−1, ECHCG) was 20% and the “Visual Injury (%)” value ([6]; 4.0 kg ha^−1, ECHCG) was 30%. For the same compound, the “Visual Injury (%)” value ([7]; 0.5 kg ha^−1, AVEFA) was 0%, the “Visual Injury (%)” value ([7]; 1.0 kg ha^−1, AVEFA) was 0% and the “Visual Injury (%)” value ([7]; 2.0 kg ha^−1, AVEFA) was 0%. The “Visual Injury (%)” value ([7]; 4.0 kg ha^−1, AVEFA) was 10%, the “Visual Injury (%)” value ([8]; 0.5 kg ha^−1, AMARE) was 0% and the “Visual Injury (%)” value ([8]; 1.0 kg ha^−1, AMARE) was 0%. The “Visual Injury (%)” value ([8]; 2.0 kg ha^−1, AMARE) was 30% and the “Visual Injury (%)” value ([8]; 4.0 kg ha^−1, AMARE) was 40%.
